The record followed here is publication PMC6611794, “Development of a high-throughput strategy for discovery of potent analogues of antibiotic lysocin E” (Nature Communications, 2019).

Assay [1] is described as follows: Liposomal membrane disruption assay (carboxyfluorescein LUVs). Type of assay: biochemical. Here is the method:
(§1) Preparation of LUVs consisting of PC/PG/MK-4 or PC/PG/UQ-10. To a solution of egg yolk phosphatidylcholine (9.48 mg, 12.4 µmol) and egg yolk phosphatidylglycerol (9.66 mg, 12.4 µmol) in CHCl3 (0.208 mL) was added a solution of MK-4 (2) or UQ-10 (3) (0.313 µmol) in CHCl3 (21.8 µL). The solution was concentrated, and dried under vacuum to for m a lipid thin film. The thin film was hydrated and suspended in carboxyfluorescein-containing buffer solution (0.500 mL, 5 mM HEPES, 20 mM carboxyfluorescein , pH 7.5) by vortexing and sonication. After five-times freeze-thaw cycles, the lipid suspension was extruded 19 times through a polycarbonate filter with 0.40 µm of pore siz e in the diameter.
(§2) The external carboxyfluorescein -containing buffer was replaced with a carboxyfluorescein -free buffer solution (20 mM HEPES, 1 mM EDTA, pH 7.5) through size exclusion chromatography using disposable PD -10 column. Concentration of egg yolk phosphatidylcholine was determined by using Phospholipid C -Test Wako.
(§3) The final concentration of egg yolk phosphatidylcholine was adjusted to 4.0 µM with the carboxyfluorescein -free buffer solution, and the solution was used for membrane disruption ass ay.
(§4) Membrane disruption assay. Peptides 1, A1–A22, B1–B5, and C1–C5 were diluted with MeOH/H2O (4/6) to various concentrations as 5-fold serial dilutions. The solution of peptides (2 µL/well) and the carboxyfluorescein-encapsulated LUV suspension (200 µL/well) were mixed in black polystyrene flat-bottom 96-well plates. The final concentration of peptides ranged from 2970 nM to 0.950 nM. The plates were vortexed at room temperature for 30 min, and then fluorescence of carboxyfluorescein (Ex. 490 nm/Em. 517 nm) of each well was measured at room temperature on Gemini EM microplate reader. Trion X-100/H2O (5/95, 2 µL), MeOH/H2O (4/6, 2 µL), and the LUV suspension were mixed in each plate to determine 100% lysis. MeOH/H2O (4/6, 2 µL) and the LUV suspension were mixed in each plate to determine 0% lysis.
(§5) The membrane disruption activities of tested peptides (I) were normalized against 100% lysis by Triton X -100 […]
(§6) (Imax) and 0% lysis by MeOH/H2O (4/6) (I0) as following, where Ix is the fluorescence intensity (Supplementary Equation 2).
(§7) I = 100 × (Ix – I0) / (Imax – I0) (2)
(§8) The membrane-disrupting activities were evaluated as half-maximal response (EC50, nM) values by means of three replicates. Sigmoidal curve fittings were performed on R2 with drc package (Supplementary Figs S7–S9).3 Two-parameter logistic model was applied for the fitting.

For assay [2], the system named is S. aureus Smith ATCC 13709. Description: Antimicrobial activity assay of bead-derived peptides (one-bead, microscale). Format: cell-based, Staphylococcus aureus. Also noted: key to antimicrobial activity: ++: inhibition; +: partial inhibition; -: no inhibition. The note with it: 85% of one-bead-derived crude peptide, 40 μL Mueller Hinton Broth with 10% calf serum, 37 °C, 18 h. The protocol:
Finally, a microscale antimicrobial assay was developed to evaluate the activity of 1 in solution phase.
Antimicrobial activity assay of bead-derived peptides. To the crude peptides in the 96-well round-bottom plate was added DMSO (1 µL/well). To the solution of peptides in each well was added a suspension of S. aureus Smith ATCC 13709 strain in 10% calf serum containing cation adjusted Müller Hinton Broth [40 µL, 2 ×10^5 colony forming units (CFU) , 21 g/L Müller Hinton Broth (Difco), 5 0 mg/L Ca2+ (adjusted with CaCl2• 2H2O), and 25 mg/L Mg 2+ (adjusted with MgCl 2•6H2O)]. The plate was incubated at 37 °C for 18 h, and the precipitation of the grown cells was examined. […]

The procedure of assay [3]:
as §1, §2, §3
Membrane disruption assay. […]
as §4, with “to” for “Membrane disruption assay. Peptides 1, A1–A22, B1–B5, and C1–C5 were diluted with MeOH/H2O (4/6) to”
as §5, §6, §7, §8

Setting [4] is: 30 min, room temperature, mean ± SD of three independent experiments, read-out: EC50 PC/PG/3.
Setting [5] is: PC/PG/3 LUVs, 1st experiment, read-out: EC50 PC/PG/3 1st.
Where [6] appears, read: PC/PG/3 LUVs, 2nd experiment, read-out: EC50 PC/PG/3 2nd.
Where [7] appears, read: PC/PG/3 LUVs, 3rd experiment, read-out: EC50 PC/PG/3 3rd.
The mark [8] stands for this setting: read-out: EC50 PC/PG/2 1st, PC/PG/2 LUVs, 1st experiment.
The mark [9] stands for this setting: read-out: EC50 PC/PG/2 2nd, PC/PG/2 LUVs, 2nd experiment.
The mark [10] stands for this setting: read-out: EC50 PC/PG/2 3rd, PC/PG/2 LUVs, 3rd experiment.
The mark [11] stands for this setting: read-out: EC50 PC/PG/2, 30 min, room temperature, mean ± SD of three independent experiments.

Read-outs that look alike come from different tables or passages of the source. Where a SMILES comes first, the peptide text is derived from it. Bridges are numbered along the chain shown (N, C = ends). [ ]: non-standard residue; d: D form. The star is where a group is joined. Hexanoyl(3R-OH,5-Me) = CC(C)C[C@@H](O)CC(=O)*; dNMeF = CN[C@H](Cc1ccccc1)C(=O)O; dOrn = NCCC[C@@H](N)C(=O)O Where only a bound is given, the exact number is not on record here.

As for `CC[C@H](C)[C@@H]1NC(=O)[C@@H](Cc2c[nH]c3ccccc23)NC(=O)[C@@H](CCCN)NC(=O)[C@H](CCC(=O)O)NC(=O)[C@@H](CCCNC(=N)N)NC(=O)[C@H](CC(C)C)NC(=O)[C@@H](Cc2ccccc2)N(C)C(=O)CNC(=O)[C@H](Cc2ccc(O)cc2)NC(=O)[C@@H](CCCNC(=N)N)NC(=O)[C@@H](NC(=O)C[C@H](O)CC(C)C)[C@@H](C)OC(=O)[C@H]([C@@H](C)O)NC1=O` [Peptide A7] ({Hexanoyl(3R-OH,5-Me)}-T[dR]YG[dNMeF]L[dR]E[dOrn][dW]IT; ester 1-C), the EC50 in assay [1] (setting [4]) came to 441 ± 136 nM; in assay [1] (setting [5]) it was 334 nM; in assay [1] (setting [6]) it was 595 nM; in assay [1] (setting [7]), 395 nM; in assay [3] (setting [8]) it was 24.6 nM; in assay [3] (setting [9]), 27.8 nM. Also, the EC50 in assay [3] (setting [10]) was found to be 14.9 nM; in assay [3] (setting [11]), 22.4 ± 6.7 nM. In addition, the antimicrobial activity entry in assay [2] (listed as YLOI) is “+ and ++”. Also, the “selectivity index (EC50 against PC/PG/3 divided by EC50 against PC/PG/2)” value in assay [3] worked out at 19.7.

Regarding `CC[C@H](C)[C@@H]1NC(=O)[C@@H](Cc2c[nH]c3ccccc23)NC(=O)[C@@H](CCCN)NC(=O)[C@H](CCC(=O)O)NC(=O)[C@@H](CCCNC(=N)N)NC(=O)[C@H](CC(C)C)NC(=O)[C@@H](Cc2ccccc2)N(C)C(=O)CNC(=O)[C@H](CC(N)=O)NC(=O)[C@@H](CCCNC(=N)N)NC(=O)[C@@H](NC(=O)C[C@H](O)CC(C)C)[C@@H](C)OC(=O)[C@H]([C@@H](C)O)NC1=O` [Peptide A14] ({Hexanoyl(3R-OH,5-Me)}-T[dR]NG[dNMeF]L[dR]E[dOrn][dW]IT; ester 1-C), the EC50 in assay [1] (setting [5]) is 999 nM; in assay [1] (setting [6]), > 1500 nM; in assay [1] (setting [7]), 867 nM; in assay [3] (setting [8]) it was 118 nM; in assay [3] (setting [9]), 79.1 nM; in assay [3] (setting [10]), 31.9 nM. In addition, the EC50 in assay [3] (setting [11]) worked out at 76.3 ± 43.1 nM. Further, the antimicrobial activity entry in assay [2] is given as “+”. Moreover, the “selectivity index (EC50 against PC/PG/3 divided by EC50 against PC/PG/2)” value in assay [3] was > 19.7.

As to `CC(C)C[C@@H](O)CC(=O)N[C@@H]1C(=O)N[C@H](CCCNC(=N)N)C(=O)N[C@@H](C)C(=O)NCC(=O)N(C)[C@H](Cc2ccccc2)C(=O)N[C@@H](CC(C)C)C(=O)N[C@H](CCCNC(=N)N)C(=O)N[C@@H](CCC(=O)O)C(=O)N[C@H](Cc2ccc(O)cc2)C(=O)N[C@H](Cc2c[nH]c3ccccc23)C(=O)N[C@@H](Cc2ccc(O)cc2)C(=O)N[C@@H]([C@@H](C)O)C(=O)O[C@@H]1C` [Peptide A15] ({Hexanoyl(3R-OH,5-Me)}-T[dR]AG[dNMeF]L[dR]E[dY][dW]YT; ester 1-C), the EC50 in assay [1] (setting [4]) came out at 268 ± 102 nM; in assay [1] (setting [5]), 231 nM; in assay [1] (setting [6]), 383 nM; in assay [1] (setting [7]) it was 189 nM; in assay [3] (setting [8]), 57.6 nM; in assay [3] (setting [9]) it was 39.6 nM. The figures for the EC50 in assay [3] (setting [10]) and in assay [3] (setting [11]) were 9 nM and 35.4 ± 24.6 nM, respectively. Also, in assay [2], the antimicrobial activity result is “+”.

On to `CC[C@H](C)[C@@H]1NC(=O)[C@@H](Cc2c[nH]c3ccccc23)NC(=O)[C@@H](CCCN)NC(=O)[C@H](CCC(=O)O)NC(=O)[C@@H](CCCNC(=N)N)NC(=O)[C@H](CC(C)C)NC(=O)[C@@H](Cc2ccccc2)N(C)C(=O)CNC(=O)[C@H](CC(=O)O)NC(=O)[C@@H](CCCNC(=N)N)NC(=O)[C@@H](NC(=O)C[C@H](O)CC(C)C)[C@@H](C)OC(=O)[C@H]([C@@H](C)O)NC1=O` [Peptide A16] ({Hexanoyl(3R-OH,5-Me)}-T[dR]DG[dNMeF]L[dR]E[dOrn][dW]IT; ester 1-C), for which the EC50 in assay [1] (setting [4]) is 832 ± 243 nM; in assay [1] (setting [5]), 892 nM; in assay [1] (setting [6]) it was 1040 nM; in assay [1] (setting [7]), 565 nM; in assay [3] (setting [8]), 70.1 nM; in assay [3] (setting [9]), 33.5 nM. The EC50 in assay [3] (setting [10]) was found to be 17.1 nM; in assay [3] (setting [11]), 40.3 ± 27.1 nM. In addition, in assay [2], the antimicrobial activity result is reported as “+”. Besides, in assay [3], the “selectivity index (EC50 against PC/PG/3 divided by EC50 against PC/PG/2)” value was found to be 20.6.

In the case of `CC[C@H](C)[C@@H]1NC(=O)[C@@H](Cc2c[nH]c3ccccc23)NC(=O)[C@@H](Cc2ccc(O)cc2)NC(=O)[C@H](CCC(=O)O)NC(=O)[C@@H](CCCNC(=N)N)NC(=O)[C@H](CC(C)C)NC(=O)[C@@H](Cc2ccccc2)N(C)C(=O)CNC(=O)[C@H](CC(=O)O)NC(=O)[C@@H](CCCNC(=N)N)NC(=O)[C@@H](NC(=O)C[C@H](O)CC(C)C)[C@@H](C)OC(=O)[C@H]([C@@H](C)O)NC1=O` [Peptide A17] ({Hexanoyl(3R-OH,5-Me)}-T[dR]DG[dNMeF]L[dR]E[dY][dW]IT; ester 1-C), the EC50 in assay [1] (setting [4]) is > 1500 nM; in assay [1] (setting [5]), > 1500 nM; in assay [1] (setting [6]), > 1500 nM; in assay [1] (setting [7]), > 1500 nM; in assay [3] (setting [8]), 437 nM; in assay [3] (setting [9]), 178 nM. Besides, the EC50 in assay [3] (setting [10]) was determined as 144 nM; in assay [3] (setting [11]), 253 ± 160 nM. The antimicrobial activity result in assay [2] was “+”.
